One experiment deals with T1, KRAS-G12D and SOS1 (Homo sapiens, UniProt P01116, G12D).
T1 construct: purchased
The experiment is described as follows: Inhibition of KRAS-G12D/SOS1 binding (Cisbio binding kit, 665/615 ratio), Effect Embodiment A. Conditions: read-out: GTP-KRAS-G12D:SOS1 IC50. The method in brief: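 Duplicate wells received an eleven-point, threefold compound titration whose top point was the stock solution; final DMSO 1%.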

The next experiment deals with T2, KRAS_WT and SOS1 (Homo sapiens, UniProt P01116).
T2 construct: purchased
The experiment is described as follows: Inhibition of KRAS_WT/SOS1 binding (Cisbio binding kit, 665/615 ratio), Effect Embodiment C. Conditions: read-out: GTP-KRAS-WT:SOS1 IC50. On the procedure:
The inhibitory ability of small molecule compounds on the binding activity of KRAS_WT and SOS1 was examined by a drug screening system based on the combination of KRAS_WT and SOS1.
(§1) Similarly, the first dilution point of the compound to be tested was its storage solution, and the solution was 3-fold diluted, with 11+0 points of dilution. Echo was used to transfer 0.2 μL gradient diluted solution of the compounds into a 384-well plate, with 2 duplicated wells for each compound, and the final concentration of DMSO was 1%. The solution was centrifuged for 1 min at 1000 rpm/min.
(§2) IC50 of the compounds was fitted by Graphpad Prism 8 nonlinear regression equation: […]
(§3) The IC50 (half inhibitory concentration) of the compound was obtained by using the following nonlinear fitting formula: […]

Another experiment addresses T3, KRAS_G12D and cRAF (Homo sapiens, UniProt P01116, G12D).
T3 construct: purchased
The experiment is described as follows: Inhibition of KRAS_G12D/cRAF binding (Cisbio binding kit, 665/615 ratio), Effect Embodiment B. Conditions: read-out: GTP-KRAS-G12D:CRAF IC50. On the procedure:
as §1, §2, §3

From US20230365563A1, “QUINAZOLINE COMPOUND AND APPLICATION THEREOF” (SHANGHAI PHARMACEUTICALS HOLDING CO., LTD., priority 2020, published 2023) come the findings set out here.

Counter-ions that a name gives are not always drawn.

Broadly, the IC50 is the concentration that inhibits the measured activity by half.

T1 sequence (P01116 1-188 isoform P01116-2 G12D): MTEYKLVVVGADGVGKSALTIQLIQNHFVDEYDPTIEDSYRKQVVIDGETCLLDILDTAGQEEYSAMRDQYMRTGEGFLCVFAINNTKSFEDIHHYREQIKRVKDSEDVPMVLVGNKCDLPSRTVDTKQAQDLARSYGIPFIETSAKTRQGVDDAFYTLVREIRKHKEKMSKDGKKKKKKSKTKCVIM
T3 sequence (P01116 1-188 isoform P01116-2 G12D): as above
T2 sequence (P01116 1-188 isoform P01116-2): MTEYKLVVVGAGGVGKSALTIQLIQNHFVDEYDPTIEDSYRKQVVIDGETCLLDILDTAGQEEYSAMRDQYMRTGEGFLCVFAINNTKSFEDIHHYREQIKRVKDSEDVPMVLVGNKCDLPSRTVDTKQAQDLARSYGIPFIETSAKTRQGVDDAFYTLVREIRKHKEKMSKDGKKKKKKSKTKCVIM

On to `CO[C@@H](COc1nc(N2CC3CCC(C2)N3)c2cc(Cl)c(-c3cc(O)cc4ccccc34)c(F)c2n1)CN1CCCC[C@H]1C` (single isomer, unassigned) [Compound 266, (R or S)-4-(4-((1R,5S)-3,8-diazacyclo[3.2.1]octan-3-yl)-6-chloro-8-fluoro-2-((R)-2-methoxy-3-((R)-2-methylpiperidin-1-yl)propoxy)quinazolin-7-yl)naphthalen-2-ol diformate], for which the IC50 is 174 nM at KRAS-G12D and SOS1; over 10000 nM on KRAS_WT and SOS1; 746 nM on KRAS_G12D and cRAF.

In the case of `C[C@@H](COc1nc(N2CC3CCC(C2)N3)c2cc(Cl)c(-c3cc(O)cc4ccccc34)c(F)c2n1)CN1C[C@@H](C)OC[C@H]1C` (single isomer, unassigned) [Compound 236, 4-((S or R)-4-((1R,5S)-3,8-diazacyclo[3.2.1]octan-3-yl)-6-chloro-2-((R)-3-((2R,5R)-2,5-dimethylmorpholinyl)-2-methylpropoxy)-8-fluoroquinazolin-7-yl)naphthalen-2-ol formate], the IC50 was found to be 19.1 nM at KRAS-G12D and SOS1; 309 nM on KRAS_WT and SOS1; 15 nM on KRAS_G12D and cRAF.

Take `C[C@@H]1CN(CC2(COc3nc(N4CC5CCC(C4)N5)c4cc(Cl)c(-c5cc(O)cc6ccccc56)c(F)c4n3)CC2)C[C@H](C)O1` (single isomer, unassigned) [Compound 207, 4-((S or R)-4-((1R,5S)-3,8-diazabicyclo[3.2.1]octan-3-yl)-6-chloro-2-((2S,6R)-2,6-dimethylmorpholinyl)methyl)cyclopropyl)methoxy)-8-fluoroquinazolin-7-yl)naphthalenol formate]: the concentration for half-maximal inhibition (IC50) on KRAS-G12D and SOS1 worked out at 11.6 nM; on KRAS_WT and SOS1, 196 nM; on KRAS_G12D and cRAF it was 7.23 nM.

As for `CN1CCC[C@H]1COc1nc(N2CC3CCC(C2)N3)c2cc(Cl)c(-c3cc(O)c(F)c4ccccc34)c(F)c2n1` (single isomer, unassigned) [Compound 89a, (S or R)-4-(4-((1R,5S)-3,8-diazabicyclo[3.2.1]octan-3-yl)-6-chloro-8-fluoro-2-(S)-1-methylpyrrolidin-2-yl)methoxy)quinazolin-7-yl)-1-fluoronaphthalen-2-ol hydrochloride], the IC50 at KRAS-G12D and SOS1 was found to be 47.7 nM; on KRAS_WT and SOS1, 2190 nM; at KRAS_G12D and cRAF, 110 nM.

Take `Oc1cc(-c2c(Cl)cc3c(N4CC5CCC(C4)N5)nc(OCC(F)CN4C5CCC4COC5)nc3c2F)c2ccccc2c1` (single isomer, unassigned) [Compound 179b, ((4R or 4S)-4-(2-((2S or 2R)-3-(3-oxa-8-azabicyclo[3.2.1]octan-8-yl)-2-fluoropropoxy)-4-((1R,5S)-3,8-diazabicyclo[3.2.1]octan-3-yl)-6-chloro-8-fluoroquinazolin-7-yl)naphthalen-2-ol diformate]: the IC50 on KRAS-G12D and SOS1 was determined as 60 nM; on KRAS_WT and SOS1 it was 5400 nM; on KRAS_G12D and cRAF it was 134 nM.

As for `CCc1cccc2cccc(-c3c(F)cc4c(N5CC6CCC(C5)N6)nc(OC[C@@]56CCCN5C[C@H](F)C6)nc4c3F)c12` (single isomer, unassigned) [Compound 281a, (S or R)-4-((1R,5S)-3,8-diazacyclo[3.2.1]octan-3-yl)-7-(8-ethylnaphthalen-1-yl)-6,8-difluoro-2-((2R,7aS)-2-fluorotetrahydro-1H-pyrrolin-7a(5H)-yl)methoxy)quinazoline dihydrochloride], the IC50 on KRAS-G12D and SOS1 worked out at 17.8 nM; on KRAS_WT and SOS1, 564 nM; on KRAS_G12D and cRAF it was 20.3 nM.

Turning to `CN(C)C1CN(c2nc(N3C4CC5CC3CC(C4)N5)c3cc(Cl)c(-c4cc(O)cc5ccccc45)c(F)c3n2)C1` (single isomer, unassigned) [Compound 34, 4-((S or R)-4-(2,6-diazaadamantan-2-yl)-6-chloro-2-(3-(dimethylamino)azetidin-1-yl)-8-fluoroquinazolin-7-yl)naphthalen-2-ol], the half-maximal inhibitory concentration (IC50) at KRAS-G12D and SOS1 was 188 nM; on KRAS_WT and SOS1, 279 nM.

For the compound `CN(C)C1CN(c2nc(N3C[C@H]4CC[C@@H](C3)N4)c3cnc(-c4cc(O)cc5ccccc45)c(F)c3n2)C1` [Compound 78, 4-(4-((1R,5S)-3,8-diazabicyclo[3.2.1]octan-3-yl)-2-(3-(dimethylamino)azetidin-1-yl)-8-fluoropyridine[4,3-d]pyrimidin-7-yl)naphthalen-2-ol], the IC50 is 44.2 nM on KRAS-G12D and SOS1; 847 nM on KRAS_WT and SOS1.

As to `Oc1cc(-c2c(Cl)cc3c(N4CC5CCC(C4)N5)nc(OCC(CN4C5CCC4COC5)C(F)(F)F)nc3c2F)c2ccccc2c1` (single isomer, unassigned) [Compound 218a, 4-((7S or 7R)-2-((2S or 2R)-2-((3-oxa-8-azabicyclo[3.2.1]octan-8-yl)methyl)-3,3,3-trifluoropropoxy)-4-((1R,5S)-3,8-diazabicyclo[3.2.1]octan-3-yl)-6-chloro-8-fluoroquinazolin-7-yl)naphthalen-2-ol diformate], the IC50 at KRAS-G12D and SOS1 stood at 91.9 nM; at KRAS_G12D and cRAF it was 579 nM.

In the case of `C[C@@H](COc1nc(N2CC3CCC(C2)N3)c2cc(Cl)c(-c3cc(O)cc4ccccc34)c(F)c2n1)CN1C[C@H](C)O[C@@H](C)C1` (single isomer, unassigned) [Compound 220, 4-((S or R)-4-((1R,5S)-3,8-diazabicyclo[3.2.1]octan-3-yl)-6-chloro-2-((R)-3-((2S,6S)-2,6-dimethylmorpholinyl)-2-methylpropoxy)-8-fluoroquinazolin-7-yl)naphthalen-2-ol formate], the IC50 on KRAS-G12D and SOS1 turned out to be 19.3 nM; on KRAS_G12D and cRAF it was 29.6 nM.

Turning to `CC(F)(COc1nc(N2CC3CCC(C2)N3)c2cc(Cl)c(-c3cc(O)cc4ccccc34)c(F)c2n1)CN1C2CCC1COC2` (single isomer, unassigned) [Compound 208b, (4S or 4R)-4-(2-((2(S or R)-3-(3-oxa-8-azabicyclo[3.2.1]octan-8-yl)-2-fluoro-2-methylpropoxy)-4-((1R,5S)-3,8-diazabicyclo[3.2.1]octan-3-yl)-6-chloro-8-fluoroquinazolin-7-yl)naphthalen-2-ol formate], the IC50 at KRAS-G12D and SOS1 was 97.5 nM; on KRAS_G12D and cRAF it was 272 nM.

For the compound `CC[C@@H]1CN(C[C@@H](C)COc2nc(N3CC4CCC(C3)N4)c3cc(Cl)c(-c4cc(O)cc5ccccc45)c(F)c3n2)C[C@H](CC)O1` (single isomer, unassigned) [Compound 219, 4-((S or R)-4-((1R,5S)-3,8-diazabicyclo[3.2.1]octan-3-yl)-6-chloro-2-((R)-3-((2R,6S)-2,6-diethylmorpholinyl)-2-methylpropoxy)-8-fluoroquinazolin-7-yl)naphthalen-2-ol formate], the IC50 came out at 17.4 nM at KRAS-G12D and SOS1; 21.6 nM on KRAS_G12D and cRAF.

On to `CN(C)C1CN(c2nc(N3CCNCC3)c3cc(Cl)c(-c4cc(O)cc5ccccc45)c(F)c3n2)C1` (single isomer, unassigned) [Comparative embodiment a, reference compound], for which the IC50 worked out at 1350 nM on KRAS-G12D and SOS1; 7310 nM on KRAS_G12D and cRAF.

With `CN(C)C1CN(c2nc(N3CCC4NCCC43)c3cc(Cl)c(-c4cc(O)cc5ccccc45)c(F)c3n2)C1` (single isomer, unassigned) [Compound 36, 4-((S or R)-6-chloro-2-(3-(dimethylamino)azetidin-1-yl)-8-fluoro-4-((3aS,6aS or 3aR,6aR)-hexahydropyrrolo [3,2-b]pyrrole-1(2H)-yl)quinazolin-7-yl)naphthalen-2-ol], the IC50 at KRAS-G12D and SOS1 was 277 nM; on KRAS_WT and SOS1 it was over 100000 nM.

Regarding `C[C@@H](COc1nc(N2CC3CCC(C2)N3)c2cc(Cl)c(-c3cc(B(O)O)cc4ccccc34)c(F)c2n1)CN1C2CCC1COC2` (single isomer, unassigned) [Compound 256, (4-((7S or 7R)-2-((2R)-3-(3-oxa-8-azabicyclo[3.2.1]octan-8-yl)-2-methylpropoxy)-4-((1R,5S)-3,8-diazabicyclo[3.2.1]octan-3-yl)-6-chloro-8-fluoroquinazolin-7-yl)naphthalen-2-yl)boronic acid ditrifluoroacetate], the IC50 came to 92.1 nM on KRAS-G12D and SOS1; 358 nM at KRAS_G12D and cRAF.

Consider `CC(F)(COc1nc(N2CC3CCC(C2)N3)c2cc(Cl)c(-c3cc(O)cc4ccccc34)c(F)c2n1)CN1C2CCC1COC2` (single isomer, unassigned) [Compound 208a, ((4S or 4R)-4-(2-((2(R or S)-3-(3-oxa-8-azabicyclo[3.2.1]octan-8-yl)-2-fluoro-2-methylpropoxy)-4-((1R,5S)-3,8-diazabicyclo[3.2.1]octan-3-yl)-6-chloro-8-fluoroquinazolin-7-yl)naphthalen-2-ol formate], for which the half-inhibitory concentration (IC50) at KRAS-G12D and SOS1 was 42.5 nM; on KRAS_G12D and cRAF, 109 nM.

For the compound `C[C@@H](COc1nc(N2CC3CCC(C2)N3)c2cc(Cl)c(-c3cc(O)cc4ccccc34)c(F)c2n1)CN1C[C@@H](C)OC[C@@H]1C` (single isomer, unassigned) [Compound 226, 4-((S or R)-4-((1R,5S)-3,8-diazabicyclo[3.2.1]octan-3-yl)-6-chloro-2-((R)-3-((2R,5S)-2,5-dimethylmorpholinyl)-2-methylpropoxy)-8-fluoroquinazolin-7-yl)naphthalenol formate], the IC50 on KRAS-G12D and SOS1 was 67.9 nM; at KRAS_G12D and cRAF, 154 nM.
